The values that follow come from patent US20190022225A1, “PROTOCOL FOR INCREASING LIFE EXPECTANCY IN A TEST SUBJECT” (Mayo Foundation for Medical Education and Research, priority 2015, published 2019).

What all share (format): in vivo, mouse
The test system of experiment [1] is INK-ATTAC transgenic mice. As to the kind of experiment: Cardiac stress test (lethal isoproterenol) in INK-ATTAC mice treated with AP20187. The method, then:
To study the impact of senescent cell clearance on health and lifespan, cohorts of INK-ATTAC transgenic mice on FVB×129Sv/E×C57BL/6 mixed or C57BL/6 pure genetic backgrounds were established. At 12 months age, one half of each cohort was injected three times/week with AP20187 to induce apoptosis of p16-positive senescent cells (0.2 mg/kg and 2 mg/kg AP20187 for the mixed and the pure C57BL/6 cohorts, respectively), while the other half of each cohort received vehicle. At 18 months, subsets of male and female mice from each cohort were subjected to a cardiac stress test, in which mice were injected with a lethal dose of isoproterenol (680 mg/kg) and the time to cardiac arrest was recorded.
Cardio-protective signaling pathways are known to provide tolerance to metabolic stresses such as ischemia and hypoxia decline (Granfeldt et al., 2009, Cardiovasc. Res. 83:234-246). […] ATP-dependent K channels (KATP) play a central role in cardio-protective signaling (Gross and Auchampach, 1992, Cardiovasc. Res. 26:1011-1016).). These KATP channels are composed of the pore-forming subunit Kir6.2/Kir6.1, the regulatory subunit Sur2a, and additional accessory proteins. […]

Experiment [2] has as its system 3MR or INK-ATTAC mice exposed to cigarette smoke. The experiment is described as follows: Cigarette smoke exposure model (COPD), oxygen saturation. To be noted: after 2 months of cigarette smoke exposure. The protocol: Six week-old 3MR (n=35) or INK-ATTAC (n=35) mice were chronically exposed to cigarette smoke generated from a Teague TE-10 system, an automatically-controlled cigarette smoking machine that produces a combination of side-stream and mainstream cigarette smoke in a chamber, which is transported to a collecting and mixing chamber where varying amounts of air is mixed with the smoke mixture. […] Mice received a total of 6 hours of cigarette smoke exposure per day, 5 days a week for 6 months. Each lighted cigarette (3R4F research cigarettes containing 10.9 mg of total particulate matter (TPM), 9.4 mg of tar, and 0.726 mg of nicotine, and 11.9 mg carbon monoxide per cigarette [University of Kentucky, Lexington, Ky.]) was puffed for 2 seconds and once every minute for a total of 8 puffs, with the flow rate of 1.05 L/min, to provide a standard puff of 35 cm^3. The smoke machine was adjusted to produce a mixture of side stream smoke (89%) and mainstream smoke (11%) by smoldering 2 cigarettes at one time. The smoke chamber atmosphere was monitored for total suspended particulates (80-120 mg/m^3) and carbon monoxide (350 ppm). Beginning at day 7, (10) INK-ATTAC and (10) 3MR mice were treated with AP20187 (3×per week) or gancyclovir (5 consecutive days of treatment followed by 16 days off drug, repeated until the end of the experiment), respectively. An equal number of mice received the corresponding vehicle. The remaining 30 mice (15 INK-ATTAC and 15 3MR) were evenly split with 5 of each genetically modified strain placed into three different treatment groups. One group (n=10) received Nutlin-3A (25 mg/kg dissolved in 10% DMSO/3% Tween-20 in PBS, treated 14 days consecutively followed by 14 days off drug, repeated until the end of the experiment). One group (n=10) received ABT-263 (Navitoclax) (100 mg/kg dissolved in 15% DMSO/5% Tween-20, treated 7 days consecutively followed by 14 days off drug, repeated until the end of the experiment), and the last group (n=10) received only the vehicle used for ABT-263 (15% DMSO/5% Tween-20), following the same treatment regimen as ABT-263.
After two months of cigarette smoke exposure, lung function was assessed by monitoring oxygen saturation using the MouseSTAT PhysioSuite pulse oximeter (Kent Scientific). Animals were anesthetized with isoflurane (1.5%) and the toe clip was applied. Mice were monitored for 30 seconds and the average peripheral capillary oxygen saturation (SpO2) measurement over this duration was calculated.

For experiment [3], the system named is INKattac mice. The experiment is described as follows: Micro CT of femoral cortical bone in INKattac mice treated from 12-28 months. The method, then:
(§1) This example describes a method for assessing the effect of senotlytic agents or killing of senescent cells on bone structure. Two groups of INKattac mice are used for this method: mice treated from 12-28 months of age with vehicle (“old” controls) and mice treated from 12-28 months of age with AP20187. All mice used in this example were male. After sacrifice the cadavers were fixed in 10% neutral buffered formalin, and stored at 4° C.
Mice were cleaned of excess tissue, and placed in a Bruker 1176 “Skyscanner” for micro computerized tomographic (mCT) scanning. A variety of settings were explored to visualize whole skeletons, the following settings were used in this example: 65 Kv, 385 μA, 17.58 μm, 0.5 mm Al filter, rotation step 0.5, frame averaging 6, smoothing 2, smoothing kernel 2, ring artifact correction 4, and beam hardening correction 30%. Typical acquisition consisted of a whole body scan, followed by additional scans if necessary for further data exploration.
Reconstruction of the raw data was carried out. Subvoluming of anatomical features of interest was then further performed on the whole skeleton, using DataViewer, or CtAn software (Bruker). […]
The average thickness of each 2 mm subvolume was measured in treated versus non-treated animals. […]

The subject of experiment [4] is INKattac mice. The experiment is described as follows: Micro CT estimate of intervertebral disc space (IVS) in aged mice. The method, then:
as §1
Intervertebral discs are type of cartilage filling the space between vertebras of the spine. They are known to decrease in function and volume with age. We estimated the intervertebral volumes between specific vertebra in spines of aged mice, with and without senolytic treatment, to determine if intervertebral disc space was maintained in aged animals through senolysis.
While IVDs cannot be directly visualized with the micro-CT method of example 43, an image segmentation protocol was developed to infer disc volume by determining the volume between lumbar vertebra L6 and L5, L5 and L4, and L4 and L3 to estimate the intervertebral disc space (IVS) (FIG. 94).

The subject of a further experiment is aging mice. As to the kind of experiment: Late life muscle strength and condition (grip strength, treadmill, muscle weight, fiber area). The method, then: Grip strength was measured in untreated 12 month old mice, and in mice treated with either vehicle or AP20187 at 18 and 28 months of age.
Muscle strength was also assessed by determining exercise duration and distance on a treadmill.
As an additional measure of muscle condition gastrocnemius and tibialis anterior muscles, shown in FIG. 99, where dissected from senolysis treated and untreated 28 month old mice and weighed. As shown in FIGS. 100 and 101 the gastrocnemius and tibialis anterior muscles are heavier in treated mice than in untreated mice, muscle weights from untreated 18 month old mice are included to show the age related decline. Muscle fiber area of the gastrocnemius and tibialis anterior muscles was also used to assess muscle condition.

Entries after “also recorded” stand apart in the source; their conditions may differ.

As for `CC[C@H](C(=O)N1CCCC[C@H]1C(=O)O[C@H](CCc1ccc(OC)c(OC)c1)c1cccc(OCC(=O)NCC(CNC(=O)COc2cccc([C@@H](CCc3ccc(OC)c(OC)c3)OC(=O)[C@@H]3CCCCN3C(=O)[C@@H](CC)c3cc(OC)c(OC)c(OC)c3)c2)CN(C)C)c1)c1cc(OC)c(OC)c(OC)c1` [AP20187], the “time to cardiac arrest after lethal isoproterenol (cardio-protection)” value in experiment [1] (0.2 or 2 mg/kg three times/week from 12 to 18 months) is on record as “sustained youthful cardio-protection against isoproterenol”. Besides, the “Sur2a expression in heart” value in experiment [1] (18-month-old female mice) is “sustained Sur2a expression”. Besides, the “SpO2 levels versus untreated controls” value in experiment [2] is given as “statistically significant increases”. For the same compound, the “cortical thickness of femoral bone” value in the experiment with INKattac mice [3] (aged mice, versus controls) was “increased”. Also, the “retention of cortical bone volume (BV/TV) with age” value with INKattac mice [3] (male mice treated from 12-28 months, 2 mm subvolume of femur mid-diaphysis) was found to be 6.1%. Moreover, the “improvement of intervertebral disc space (IVS)” value with INKattac mice [4] (L6-L5, L5-L4, L4-L3, versus vehicle) is on record as 25-33%. Also, the “IVS versus vehicle treated controls, significance” value in the experiment on INKattac mice [4] (three sites in the spine) is on record as “statistically significantly greater”. For the same compound, the “gastrocnemius and tibialis anterior muscle weight” value in the experiment with aging mice (28 month old mice) was “decreased muscle loss with age”. Also, in the experiment on aging mice (28 months, versus vehicle), the “exercise distance on treadmill” value is “increased exercise distance; also recorded: greater distances”, the “exercise duration on treadmill” value was “increased duration of exercise; also recorded: exercised for longer” and the grip strength entry is reported as “increased grip strength; also recorded: decreased loss of muscle strength”.
